In patent US20100298141A1, “SUBSTITUTED PYRIDINE N-OXIDE HERBICIDES” (E. I. DU PONT DE NEMOURS AND COMPANY, priority 2007, published 2010):

How the values were obtained:
corn = assay: Test A pre-/postemergence greenhouse test; assay type: in vivo, Zea mays; conditions: for Plant response rating, Corn: 0 to 100 scale where 0 is no effect and 100 is complete control; for Corn plant response rating: 0 to 100 scale
Procedure, shortened: (§1)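 Untreated controls served as the reference for visual injury ratings taken about ten days after spraying. The non-phytotoxic solvent/surfactant formulation was applied preemergence to seeded loam and sand and postemergence to plants two to ten cm high.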

rice = assay: Test C flooded paddy test; assay type: in vivo, Oryza sativa; conditions: Flood
Procedure, shortened: (§2)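 Ratings were visual and made relative to untreated controls after 13 to 15 greenhouse days.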

crabgrass = assay: Test C pre-/postemergence test; assay type: in vivo, Digitaria sanguinalis; conditions: for Plant response rating, Crabgrass, Large: 31 g ai/ha, scale 0 to 100 (0 no effect, 100 complete control)
Procedure, shortened: (§3)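 Compounds in a non-phytotoxic solvent with surfactant applied preemergence to seeded pots and, at the same time, postemergence to plants 2–18 cm tall (1- to 4-leaf stage). Paddy tests: pots flooded to 3 cm, compound applied into the water, depth held throughout.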

duck salad = assay: Test C flooded paddy test; assay type: in vivo, Heteranthera limosa; conditions: Flood
Procedure, shortened: as §2

catchweed bedstraw = assay: Test C pre-/postemergence test; assay type: in vivo, Galium aparine; conditions: for Plant response rating, Galium: 31 g ai/ha, scale 0 to 100 (0 no effect, 100 complete control)
Procedure, shortened: as §3

bermudagrass = assay: Test C pre-/postemergence test; assay type: in vivo, Cynodon dactylon; conditions: for Plant response rating, Bermudagrass: 31 g ai/ha
Procedure, shortened: as §3

redroot pigweed = assay: Test A pre-/postemergence greenhouse test; assay type: in vivo, Amaranthus retroflexus; conditions: for Plant response rating, Pigweed: 0 to 100 scale where 0 is no effect and 100 is complete control; for Pigweed plant response rating: 0 to 100 scale
Procedure, shortened: as §1

kochia = assay: Test C pre-/postemergence test; assay type: in vivo, Kochia scoparia; conditions: for Plant response rating, Kochia: 31 g ai/ha, scale 0 to 100 (0 no effect, 100 complete control)
Procedure, shortened: as §3

Surinam grass = assay: Test C pre-/postemergence test; assay type: in vivo, Brachiaria decumbens; conditions: for Plant response rating, Surinam Grass: 31 g ai/ha, scale 0 to 100 (0 no effect, 100 complete control)
Procedure, shortened: as §3

velvetleaf = assay: Test C pre-/postemergence test; assay type: in vivo, Abutilon theophrasti; conditions: for Plant response rating, Velvetleaf: 31 g ai/ha, scale 0 to 100 (0 no effect, 100 complete control)
Procedure, shortened: as §3

wheat = assay: Test C pre-/postemergence test; assay type: in vivo, Triticum aestivum; conditions: for Plant response rating, Wheat: 31 g ai/ha, scale 0 to 100 (0 no effect, 100 complete control)
Procedure, shortened: as §3

blackgrass = assay: Test C pre-/postemergence test; assay type: in vivo, Alopecurus myosuroides; conditions: for Plant response rating, Blackgrass: 31 g ai/ha, scale 0 to 100 (0 no effect, 100 complete control)
Procedure, shortened: as §3

eastern black nightshade = assay: Test C pre-/postemergence test; assay type: in vivo, Solanum ptycanthum; conditions: for Plant response rating, Nightshade: 31 g ai/ha, scale 0 to 100 (0 no effect, 100 complete control)
Procedure, shortened: as §3

[1] = tested on: common (oilseed) sunflower; assay: Test C pre-/postemergence test; assay type: in vivo, Helianthus annuus; conditions: for Plant response rating, Sunflower: 31 g ai/ha, scale 0 to 100 (0 no effect, 100 complete control)
Procedure, shortened: as §3

pigweed = assay: Test C pre-/postemergence test; assay type: in vivo, Amaranthus retroflexus; conditions: for Plant response rating, Pigweed: 31 g ai/ha, scale 0 to 100 (0 no effect, 100 complete control)
Procedure, shortened: as §3

barnyardgrass = assay: Test C flooded paddy test; assay type: in vivo, Echinochloa crus-galli; conditions: Flood
Procedure, shortened: as §2

wild oat = assay: Test C pre-/postemergence test; assay type: in vivo, Avena fatua; conditions: for Plant response rating, Oat, Wild: 31 g ai/ha, scale 0 to 100 (0 no effect, 100 complete control)
Procedure, shortened: as §3

[2] = Postemergence, 500 g ai/ha, 0 is no effect, 100 is complete control
[3] = Preemergence, 125 g ai/ha, 0 no effect, 100 complete control
[4] = 62 g ai/ha, scale 0 to 100 (0 no effect, 100 complete control)
[5] = 250 g ai/ha, scale 0 to 100, 0 no effect, 100 complete control, 13 to 15 days
[6] = 62 g ai/ha, Preemergence, scale 0 to 100
[7] = 125 g ai/ha, preemergence, scale 0 (no effect) to 100 (complete control)
[8] = preemergence, 250 g ai/ha, scale 0 (no effect) to 100 (complete control)
[9] = 62 g ai/ha, Preemergence, scale 0 to 100 (0 no effect, 100 complete control)
[10] = Preemergence, scale 0 to 100 (0 no effect, 100 complete control)
[11] = 31 g ai/ha, scale 0 to 100 (0 no effect, 100 complete control)
[12] = 62 g ai/ha, scale 0 to 100, 0 no effect, 100 complete control, 13 to 15 days
[13] = 125 g ai/ha, scale 0 to 100, 0 no effect, 100 complete control, 13 to 15 days

Cn1nc(C(F)(F)F)c(C[S+]([O-])c2cccc[n+]2[O-])c1OCC(F)F (stereo not drawn) [Compound 75]
Plant response rating, Corn (corn; Postemergence, 125 g ai/ha): 50 | Corn plant response rating (corn; [2]): 70 | Corn plant response rating (corn; [3]): 0 | Plant response rating, Corn (corn; Preemergence, 500 g ai/ha): 70 | Plant response rating, Rice (rice; [4]): 0 | Plant response rating, Rice (rice; [5]): 60 | Crabgrass, Large plant response rating (crabgrass; [6]): 85 | Crabgrass, Large plant response rating (crabgrass; [7]): 100 | Plant response rating, Crabgrass, Large (crabgrass; Preemergence): 40 | Crabgrass, Large plant response rating (crabgrass; [8]): 100 | Plant response rating, Ducksalad (duck salad; [4]): 40 | Plant response rating, Ducksalad (duck salad; [5]): 85 | Galium plant response rating (catchweed bedstraw; [6]): 100 | Galium plant response rating (catchweed bedstraw; [7]): 100 | Plant response rating, Galium (catchweed bedstraw; Preemergence): 80 | Galium plant response rating (catchweed bedstraw; [8]): 100 | Bermudagrass plant response rating (bermudagrass; [9]): 100 | Bermudagrass plant response rating (bermudagrass; [7]): 100 | Plant response rating, Bermudagrass (bermudagrass; [10]): 100 | Bermudagrass plant response rating (bermudagrass; [8]): 100 | Plant response rating, Pigweed (redroot pigweed; Postemergence, 125 g ai/ha): 70 | Pigweed plant response rating (redroot pigweed; [2]): 100 | Pigweed plant response rating (redroot pigweed; [3]): 80 | Plant response rating, Pigweed (redroot pigweed; Preemergence, 500 g ai/ha): 100 | Kochia plant response rating (kochia; [6]): 100 | Kochia plant response rating (kochia; [7]): 100 | Plant response rating, Kochia (kochia; Preemergence): 100 | Kochia plant response rating (kochia; [8]): 100 | Surinam Grass plant response rating (Surinam grass; [6]): 100 | Surinam Grass plant response rating (Surinam grass; [7]): 100 | Plant response rating, Surinam Grass (Surinam grass; Preemergence): 60 | Surinam Grass plant response rating (Surinam grass; [8]): 100 | Velvetleaf plant response rating (velvetleaf; [6]): 100 | Velvetleaf plant response rating (velvetleaf; [7]): 100 | Plant response rating, Velvetleaf (velvetleaf; Preemergence): 100 | Velvetleaf plant response rating (velvetleaf; [8]): 100 | Wheat plant response rating (wheat; [6]): 30 | Wheat plant response rating (wheat; [7]): 60 | Plant response rating, Wheat (wheat; Preemergence): 0 | Wheat plant response rating (wheat; [8]): 95 | Blackgrass plant response rating (blackgrass; [6]): 100 | Blackgrass plant response rating (blackgrass; [7]): 100 | Plant response rating, Blackgrass (blackgrass; Preemergence): 60 | Blackgrass plant response rating (blackgrass; [8]): 100 | Nightshade plant response rating (eastern black nightshade; [6]): 98 | Nightshade plant response rating (eastern black nightshade; [7]): 100 | Plant response rating, Nightshade (eastern black nightshade; Preemergence): 0 | Nightshade plant response rating (eastern black nightshade; [8]): 100 | Sunflower plant response rating [1, 6]: 50 | Sunflower plant response rating [1, 7]: 100 | Plant response rating, Sunflower ([1]; Preemergence): 0 | Sunflower plant response rating [1, 8]: 100 | Pigweed plant response rating (pigweed; [6]): 100 | Pigweed plant response rating (pigweed; [7]): 100 | Plant response rating, Pigweed (pigweed; Preemergence): 100 | Pigweed plant response rating (pigweed; [8]): 100 | Plant response rating, Barnyardgrass (barnyardgrass; [4]): 0 | Plant response rating, Barnyardgrass (barnyardgrass; [5]): 45 | Oat, Wild plant response rating (wild oat; [6]): 40 | Oat, Wild plant response rating (wild oat; [7]): 70 | Plant response rating, Oat, Wild (wild oat; Preemergence): 0 | Oat, Wild plant response rating (wild oat; [8]): 80

Cn1nc(C(F)(F)F)c(C[S+]([O-])c2ccc(F)c[n+]2[O-])c1Cl (stereo not drawn) [Compound 54]
Plant response rating, Corn (corn; Postemergence, 125 g ai/ha): 0 | Corn plant response rating (corn; [2]): 60 | Corn plant response rating (corn; [3]): 20 | Plant response rating, Corn (corn; Preemergence, 500 g ai/ha): 70 | Plant response rating, Rice (rice; [11]): 0 | Plant response rating, Rice (rice; [12]): 0 | Plant response rating, Rice (rice; [13]): 15 | Plant response rating, Rice (rice; [5]): 40 | Crabgrass, Large plant response rating (crabgrass; [6]): 100 | Crabgrass, Large plant response rating (crabgrass; [7]): 100 | Plant response rating, Crabgrass, Large (crabgrass; Preemergence): 85 | Crabgrass, Large plant response rating (crabgrass; [8]): 100 | Plant response rating, Ducksalad (duck salad; [11]): 0 | Plant response rating, Ducksalad (duck salad; [12]): 0 | Plant response rating, Ducksalad (duck salad; [13]): 0 | Plant response rating, Ducksalad (duck salad; [5]): 85 | Galium plant response rating (catchweed bedstraw; [6]): 0 | Galium plant response rating (catchweed bedstraw; [7]): 85 | Plant response rating, Galium (catchweed bedstraw; Preemergence): 0 | Galium plant response rating (catchweed bedstraw; [8]): 85 | Bermudagrass plant response rating (bermudagrass; [9]): 100 | Bermudagrass plant response rating (bermudagrass; [7]): 100 | Plant response rating, Bermudagrass (bermudagrass; [10]): 98 | Bermudagrass plant response rating (bermudagrass; [8]): 100 | Plant response rating, Pigweed (redroot pigweed; Postemergence, 125 g ai/ha): 40 | Pigweed plant response rating (redroot pigweed; [2]): 60 | Pigweed plant response rating (redroot pigweed; [3]): 90 | Plant response rating, Pigweed (redroot pigweed; Preemergence, 500 g ai/ha): 100 | Kochia plant response rating (kochia; [6]): 100 | Kochia plant response rating (kochia; [7]): 100 | Plant response rating, Kochia (kochia; Preemergence): 50 | Kochia plant response rating (kochia; [8]): 100 | Surinam Grass plant response rating (Surinam grass; [6]): 90 | Surinam Grass plant response rating (Surinam grass; [7]): 100 | Plant response rating, Surinam Grass (Surinam grass; Preemergence): 55 | Surinam Grass plant response rating (Surinam grass; [8]): 100 | Velvetleaf plant response rating (velvetleaf; [6]): 0 | Velvetleaf plant response rating (velvetleaf; [7]): 5 | Plant response rating, Velvetleaf (velvetleaf; Preemergence): 0 | Velvetleaf plant response rating (velvetleaf; [8]): 85 | Wheat plant response rating (wheat; [7]): 40 | Plant response rating, Wheat (wheat; Preemergence): 0 | Blackgrass plant response rating (blackgrass; [6]): 50 | Plant response rating, Blackgrass (blackgrass; Preemergence): 0 | Blackgrass plant response rating (blackgrass; [8]): 85 | Nightshade plant response rating (eastern black nightshade; [6]): 50 | Nightshade plant response rating (eastern black nightshade; [7]): 85 | Plant response rating, Nightshade (eastern black nightshade; Preemergence): 0 | Nightshade plant response rating (eastern black nightshade; [8]): 85 | Sunflower plant response rating [1, 7]: 0 | Plant response rating, Sunflower ([1]; Preemergence): 0 | Sunflower plant response rating [1, 8]: 0 | Pigweed plant response rating (pigweed; [6]): 100 | Pigweed plant response rating (pigweed; [7]): 100 | Plant response rating, Pigweed (pigweed; Preemergence): 0 | Pigweed plant response rating (pigweed; [8]): 100 | Plant response rating, Barnyardgrass (barnyardgrass; [11]): 0 | Plant response rating, Barnyardgrass (barnyardgrass; [12]): 20 | Plant response rating, Barnyardgrass (barnyardgrass; [13]): 65 | Plant response rating, Barnyardgrass (barnyardgrass; [5]): 80 | Oat, Wild plant response rating (wild oat; [6]): 10 | Oat, Wild plant response rating (wild oat; [7]): 30 | Plant response rating, Oat, Wild (wild oat; Preemergence): 0 | Oat, Wild plant response rating (wild oat; [8]): 40
